Blank lines part the entries; values can stand above or below the molecule they belong to. Calls of active or inactive are those of the source.
Assays:
[1] = target: T1, Tyrosine-protein phosphatase non-receptor type 22 (Homo sapiens, UniProt Q9Y2R2); test: SAR LYP1 Fluorescent Assay using pCAP substrate for In Vitro dose response studies - Set 4. [Related pubchem assays (depositor defined):AID1779, AID1784]; assay type: functional
T1 sequence (Q9Y2R2 whole entry): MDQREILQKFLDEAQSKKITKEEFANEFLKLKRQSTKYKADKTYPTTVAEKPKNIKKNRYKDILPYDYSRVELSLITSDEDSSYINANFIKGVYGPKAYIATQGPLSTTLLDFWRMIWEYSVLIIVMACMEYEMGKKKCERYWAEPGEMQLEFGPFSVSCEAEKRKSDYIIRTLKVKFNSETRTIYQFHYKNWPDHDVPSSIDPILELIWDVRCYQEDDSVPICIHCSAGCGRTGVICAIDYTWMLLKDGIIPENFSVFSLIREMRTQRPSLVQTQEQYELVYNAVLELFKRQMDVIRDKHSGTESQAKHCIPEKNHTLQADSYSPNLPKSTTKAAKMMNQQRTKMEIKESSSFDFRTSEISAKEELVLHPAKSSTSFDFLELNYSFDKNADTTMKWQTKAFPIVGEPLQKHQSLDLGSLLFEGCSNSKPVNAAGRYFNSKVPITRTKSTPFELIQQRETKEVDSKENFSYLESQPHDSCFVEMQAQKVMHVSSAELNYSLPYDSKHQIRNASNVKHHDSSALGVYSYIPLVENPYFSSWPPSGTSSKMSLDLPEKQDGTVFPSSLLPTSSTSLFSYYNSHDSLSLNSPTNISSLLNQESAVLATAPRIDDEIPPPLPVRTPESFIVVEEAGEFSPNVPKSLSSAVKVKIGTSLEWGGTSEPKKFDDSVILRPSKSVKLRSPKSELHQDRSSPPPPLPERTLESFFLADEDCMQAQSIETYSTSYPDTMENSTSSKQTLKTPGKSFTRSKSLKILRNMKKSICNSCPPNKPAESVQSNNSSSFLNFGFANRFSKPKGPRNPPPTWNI

[2] = target: Tyrosine-protein phosphatase non-receptor type 12 (Homo sapiens, UniProt Q05209); test: SAR Selectivity Analysis of small molecule inhibitors of PEST using pCAP in a fluorescence assay. [Related pubchem assays (depositor defined):AID1779, AID1784, AID2135]; assay type: functional
[3] = target: T1, Tyrosine-protein phosphatase non-receptor type 22; test: SAR LYP1 Fluorescent Assay using OMFP substrate for In Vitro dose response studies - Set 4. [Related pubchem assays (depositor defined):AID1779, AID1784, AID2140, AID2686]; assay type: functional
[4] = target: T2, Caspase-3 (Homo sapiens, UniProt P42574); test: activation of caspase-3 zymogen – biochemical, absorbance, dose response (AID 489014)
T2 sequence (P42574 whole entry): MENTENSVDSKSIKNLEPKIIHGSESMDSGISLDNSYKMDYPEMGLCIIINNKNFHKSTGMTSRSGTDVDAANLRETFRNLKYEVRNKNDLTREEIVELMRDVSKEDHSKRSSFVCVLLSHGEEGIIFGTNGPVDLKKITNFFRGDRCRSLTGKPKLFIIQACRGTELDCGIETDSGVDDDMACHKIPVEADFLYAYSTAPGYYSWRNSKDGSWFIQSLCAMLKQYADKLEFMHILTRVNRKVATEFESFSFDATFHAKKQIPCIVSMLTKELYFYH

[5] = NIH3T3 cell viability loss – ATP luminescence, mouse fibroblasts, counter-screen, dose response (AID 2010); assay type: functional, cell-based;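 note: cells exposed to compound for about 90 hours before reading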
[6] = target: Caspase-7 (Homo sapiens, UniProt P55210); test: activation of caspase-7 zymogen – biochemical, absorbance, counter-screen for procaspase-3 activator project, dose response (AID 489013)
[7] = Trypanosoma cruzi growth suppression in host cells – NIH3T3 host cells, beta-gal luminescence, confirmation (AID 2044); assay type: functional, cell-based;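 note: intracellular parasites grown in NIH/3T3 mouse fibroblasts as host cells; luminescent beta-galactosidase reporter signal from transgenic T. cruzi replicating inside host cells; inhibitors lower the luminescence signal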
[8] = target: ATP-dependent molecular chaperone HSP82 (Candida albicans (strain WO-1) (Yeast), UniProt C4YTQ8); test: steroid-induced GRE reporter decrease in yeast – S. cerevisiae, luminescence, Hsp90 inhibitor project, dose response (AID 2400); assay type: functional, cell-based;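 note: beta-galactosidase luminescence from glucocorticoid response element reporter as proxy for Hsp90 function; inhibitor potency where signal loss means Hsp90 inhibition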
[9] = target: Envelope glycoprotein gp160 (Human immunodeficiency virus 1, UniProt Q6QLK5); test: cell-free HIV fusion peptide-binding blockers – biochemical, uHTS, fluorescence dequenching, […] (AID 1986)
[10] = NIH-3T3 fibroblast cytotoxicity, dose response, cytotoxicity control, cell-based, fluorescence, Alamar Blue, secondary assay (AID 2327); assay type: functional;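 note: NIH-3T3 mouse fibroblasts cultured with fluconazole at 8 µg/mL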
[11] = target: T3, Serine/threonine-protein phosphatase (Candida dubliniensis (strain CD36 / CBS 7987 / NCPF 3949 / NRRLY-17841) (Yeast), UniProt B9W6M3); test: blockers of CaCl2-induced CDRE-lacZ signaling – S. cerevisiae, luminescence, secondary, dose response (AID 2388); assay type: functional, cell-based;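 note: yeast reporter cells carrying a calcineurin-responsive lacZ construct stimulated with calcium chloride; luminescent beta-galactosidase reporter signal in whole cells rather than isolated phosphatase activity; potency for inhibition where a drop in reporter signal means calcineurin blockade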
T3 sequence (B9W6M3 whole entry): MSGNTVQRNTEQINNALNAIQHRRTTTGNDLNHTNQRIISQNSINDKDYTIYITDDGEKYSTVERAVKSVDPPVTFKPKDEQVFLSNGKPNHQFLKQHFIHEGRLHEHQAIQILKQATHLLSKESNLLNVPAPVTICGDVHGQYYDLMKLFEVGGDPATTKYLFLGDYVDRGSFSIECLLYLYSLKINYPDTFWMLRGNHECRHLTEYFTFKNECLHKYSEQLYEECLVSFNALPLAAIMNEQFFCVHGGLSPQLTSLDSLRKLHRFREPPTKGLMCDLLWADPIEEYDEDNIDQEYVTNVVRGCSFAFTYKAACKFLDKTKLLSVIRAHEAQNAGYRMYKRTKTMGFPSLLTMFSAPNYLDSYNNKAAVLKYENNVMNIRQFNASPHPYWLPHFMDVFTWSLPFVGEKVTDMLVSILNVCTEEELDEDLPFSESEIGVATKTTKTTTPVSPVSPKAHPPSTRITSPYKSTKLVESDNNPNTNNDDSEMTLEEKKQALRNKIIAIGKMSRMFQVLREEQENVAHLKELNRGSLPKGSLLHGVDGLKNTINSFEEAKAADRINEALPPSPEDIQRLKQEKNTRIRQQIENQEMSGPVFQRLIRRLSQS

[12] = fluconazole-exposed Candida albicans growth modulators – fluorescence, retest, confirmation (AID 2467); assay type: functional, cell-based

Sequence of ATP-dependent molecular chaperone HSP82 (C4YTQ8 whole entry, the tested form may be a part): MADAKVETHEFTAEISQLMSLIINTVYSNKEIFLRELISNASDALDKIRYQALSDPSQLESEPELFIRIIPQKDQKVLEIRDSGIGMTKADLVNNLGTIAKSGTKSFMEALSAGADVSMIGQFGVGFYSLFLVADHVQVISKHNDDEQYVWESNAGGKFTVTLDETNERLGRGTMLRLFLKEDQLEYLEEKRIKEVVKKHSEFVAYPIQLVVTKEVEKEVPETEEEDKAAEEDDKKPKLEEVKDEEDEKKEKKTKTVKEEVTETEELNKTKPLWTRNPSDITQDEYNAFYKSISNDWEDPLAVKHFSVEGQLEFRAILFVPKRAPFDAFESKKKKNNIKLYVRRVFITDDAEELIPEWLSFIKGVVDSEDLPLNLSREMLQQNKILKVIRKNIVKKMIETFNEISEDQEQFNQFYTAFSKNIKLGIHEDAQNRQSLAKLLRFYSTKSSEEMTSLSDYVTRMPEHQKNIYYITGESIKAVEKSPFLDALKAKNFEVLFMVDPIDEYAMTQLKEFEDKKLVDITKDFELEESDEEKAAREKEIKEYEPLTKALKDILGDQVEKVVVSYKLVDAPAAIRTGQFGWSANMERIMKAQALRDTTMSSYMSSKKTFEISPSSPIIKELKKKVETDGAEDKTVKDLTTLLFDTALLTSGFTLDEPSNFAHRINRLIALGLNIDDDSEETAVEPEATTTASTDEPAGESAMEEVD
Sequence of Tyrosine-protein phosphatase non-receptor type 12 (Q05209 whole entry): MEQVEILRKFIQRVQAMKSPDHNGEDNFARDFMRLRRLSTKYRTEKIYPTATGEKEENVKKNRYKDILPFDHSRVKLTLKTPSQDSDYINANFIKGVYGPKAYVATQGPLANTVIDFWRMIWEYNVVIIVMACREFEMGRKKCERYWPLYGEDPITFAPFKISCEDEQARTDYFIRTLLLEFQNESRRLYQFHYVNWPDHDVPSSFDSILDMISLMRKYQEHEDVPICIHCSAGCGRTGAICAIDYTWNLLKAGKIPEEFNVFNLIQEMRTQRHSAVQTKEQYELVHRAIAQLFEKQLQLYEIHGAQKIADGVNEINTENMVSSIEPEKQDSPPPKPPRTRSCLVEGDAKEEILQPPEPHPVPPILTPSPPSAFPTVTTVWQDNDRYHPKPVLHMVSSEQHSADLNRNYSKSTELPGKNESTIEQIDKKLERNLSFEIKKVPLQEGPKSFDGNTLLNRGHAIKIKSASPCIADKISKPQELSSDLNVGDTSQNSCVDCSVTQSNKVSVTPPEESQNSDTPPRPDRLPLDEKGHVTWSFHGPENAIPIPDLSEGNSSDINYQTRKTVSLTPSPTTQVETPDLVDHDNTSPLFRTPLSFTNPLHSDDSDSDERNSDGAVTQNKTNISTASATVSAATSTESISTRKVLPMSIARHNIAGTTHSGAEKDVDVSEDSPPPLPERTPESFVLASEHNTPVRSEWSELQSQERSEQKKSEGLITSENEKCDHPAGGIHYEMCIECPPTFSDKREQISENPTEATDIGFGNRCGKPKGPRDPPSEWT
Sequence of Envelope glycoprotein gp160 (Q6QLK5 whole entry, the tested form may be a part): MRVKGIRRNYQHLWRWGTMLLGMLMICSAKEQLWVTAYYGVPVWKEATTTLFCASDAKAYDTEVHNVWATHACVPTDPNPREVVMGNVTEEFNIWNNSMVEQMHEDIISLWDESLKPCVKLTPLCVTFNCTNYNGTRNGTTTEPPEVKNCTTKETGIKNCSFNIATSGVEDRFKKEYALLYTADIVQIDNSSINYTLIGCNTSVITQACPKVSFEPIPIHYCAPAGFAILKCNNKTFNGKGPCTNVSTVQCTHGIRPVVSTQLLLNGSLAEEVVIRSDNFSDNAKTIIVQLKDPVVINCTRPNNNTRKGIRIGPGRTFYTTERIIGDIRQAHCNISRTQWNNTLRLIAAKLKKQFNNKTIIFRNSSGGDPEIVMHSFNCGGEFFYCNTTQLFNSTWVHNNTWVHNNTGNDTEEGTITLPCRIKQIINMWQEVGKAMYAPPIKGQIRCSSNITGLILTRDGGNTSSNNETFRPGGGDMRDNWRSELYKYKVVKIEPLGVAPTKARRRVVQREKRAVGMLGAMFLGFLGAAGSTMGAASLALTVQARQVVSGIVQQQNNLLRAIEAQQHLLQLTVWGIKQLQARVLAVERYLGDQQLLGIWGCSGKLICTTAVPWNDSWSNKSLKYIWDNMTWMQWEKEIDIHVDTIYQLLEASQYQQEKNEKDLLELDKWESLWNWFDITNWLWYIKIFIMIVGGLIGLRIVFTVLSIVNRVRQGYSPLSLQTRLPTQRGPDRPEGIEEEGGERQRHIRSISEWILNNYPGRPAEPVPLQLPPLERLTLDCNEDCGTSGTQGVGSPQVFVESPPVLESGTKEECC
Sequence of Caspase-7 (P55210 24-198 limits assumed): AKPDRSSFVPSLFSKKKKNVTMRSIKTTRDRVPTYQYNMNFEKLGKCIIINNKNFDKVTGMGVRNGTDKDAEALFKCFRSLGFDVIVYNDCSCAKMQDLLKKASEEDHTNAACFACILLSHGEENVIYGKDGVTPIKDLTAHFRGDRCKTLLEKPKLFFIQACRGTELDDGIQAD
Sequence of Caspase-7 (P55210 207-303 limits assumed): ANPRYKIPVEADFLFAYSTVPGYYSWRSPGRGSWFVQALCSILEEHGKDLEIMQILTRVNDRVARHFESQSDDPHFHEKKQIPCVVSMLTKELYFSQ

IC50 [1]: 60.8 µM (active) | IC50 [2]: 37.4 µM (active) | IC50 [3]: 89 µM (active)
Structure (SMILES): CCOC(=O)COc1ccc(/C=N/NC(=O)c2ccc(-c3csc(Nc4ccc(Cl)cc4)n3)cc2)cc1

Structure (SMILES): Cc1ccc(C)c(N(CC(=O)Nc2ccc(-c3nc4ccc(C)cc4s3)cc2)S(C)(=O)=O)c1
EC50 [4]: > 85.2 µM (inactive) | EC50 [5]: > 60 µM (inconclusive) | EC50 [6]: > 85.2 µM (inactive) | EC50 [7]: 2.78 µM (active)

Structure (SMILES): CC(C)CCN1C(=O)c2ccc(C(=O)Nc3ccc(Br)cc3C(=O)O)cc2C1=O
EC50 [8]: 15.6 µM (active) | IC50 [9]: > 99 µM (inactive) | EC50 [10]: > 160 µM (inactive) | EC50 [11]: > 180 µM (inactive) | EC50 [12]: 2.46 µM (active)

— ChEMBL document CHEMBL1201862, “PubChem BioAssay data set” (2004)
